This note sets out measurements from patent publication US20190062736A1, “IN SITU AND IN VIVO ANALYSIS OF CHROMATIN INTERACTIONS BY BIOTINYLATED DCAS9 PROTEIN” (BOARD OF REGENTS, THE UNIVERSITY OF TEXAS SYSTEM, priority 2017, published 2019).

The test system of experiment [1] is human primary erythroid cells. As to the kind of experiment: qRT-PCR of β-globin mRNAs after JQ1 treatment. The conditions noted are these: JQ1 vs DMSO. The format is cell-based. Here is the method: (§1) Cells and Cell Culture. Human […] K562 cells were obtained from ATCC and cultured in IMDM medium containing 10% FBS and 1% penicillin/streptomycin. pEF1α-FB-dCas9 and pEF1α-BirA-V5 vectors were co-transfected into K562 cells by nucleofection using the ECM 830 Square Wave Electroporation System (Harvard Apparatus, Holliston, Mass.). Cells were plated in 96-well plates and treated with 1 μg/ml of puromycin (Sigma) and 600 μg/ml of G418 (Sigma) 48-72 hour post-transfection. Single-cell-derived clones were isolated and examined by Western blot analysis to screen for FB-dCas9 and BirA-expressing stable clones. Human primary adult erythroid progenitor cells were generated ex vivo from CD34+ HSPCs as previously described (Huang et al., 2016). Primary HSPCs from both sexes were used in this study. […] Mouse male embryonic stem cells (ESCs) were cultured on primary embryonic fibroblasts and differentiated to embryoid bodies (EBs) by LIF withdrawal for 8 days. All cultures were incubated at 37° C. in 5% CO2. All cell lines were tested for mycoplasma contamination. […]
RNA-seq and qRT-PCR Analysis. […] Sequencing reads from all RNA-seq experiments were aligned to human (hg19) reference genome by TopHat v2.0.13 (Trapnell et al., 2009) with the parameters: --solexaquals --no-novel-juncs. Quantitative RT-PCR (qRT-PCR) was performed using the iQ SYBR Green Supermix (Bio-Rad).
(In qPCR the cycle at which signal appears reflects the starting amount.)

The test system of the next experiment is human erythroid cells. As to the kind of experiment: Erythroid maturation by CD71/CD235a flow cytometry and cytospin after JQ1. The format is cell-based. The conditions noted are these: JQ1 vs DMSO, cell surface markers CD71 and CD235a, cytospin. As for the experimental part:
as §1, with “CO2.” for “CO2. All cell lines were tested for mycoplasma contamination.”
Flow Cytometry. Human erythroid cell differentiation was analyzed by flow cytometry using FACSCanto. […] The cells were analyzed for expression of cell surface receptors with antibodies specific for CD71 and CD235a conjugated to phycoerythrin (PE) and fluorescein isothiocyanate (FITC), respectively. Data were analyzed using FlowJo software (Ashland, Oreg.). […]
Background: In flow cytometry, cells or beads pass a laser one at a time.

“Also recorded” adds a separate entry of the source.

On to `Cc1sc2c(c1C)C(c1ccc(Cl)cc1)=N[C@@H](CC(=O)OC(C)(C)C)c1nnc(C)n1-2` [JQ1], for which the “β-globin mRNAs” value in experiment [1] is given as “significant downregulation; also recorded: significantly decreased”. Further, the erythroid differentiation result with human erythroid cells was “without apparent effects”.
